# From ChEMBL document CHEMBL3112480, “γ-Alkylidene-γ-lactones and isobutylpyrrol-2(5H)-ones analogues to rubrolides as inhibitors of biofilm formation by gram-positive and gram-negative bacteria” (Bioorg Med Chem Lett, 2014)
# How the values were obtained:
# Pseudomonas aeruginosa [1] = assay: Antibacterial activity against Pseudomonas aeruginosa ATCC 27853 assessed as inhibition of biofilm formation after 20 hrs by crystal-violet staining method; type: functional, organism-based
# Pseudomonas aeruginosa [2] = assay: Antibacterial activity against Pseudomonas aeruginosa ATCC 27853 assessed as effect on planktonic growth at 87.5 ug/ml after 20 hrs relative to control; type: functional
# Streptococcus mutans [3] = assay: Antibacterial activity against Streptococcus mutans ATCC 25175 assessed as effect on planktonic growth at 5.5 ug/ml after 20 hrs relative to control; type: functional
# Pseudomonas aeruginosa [4] = assay: Antibacterial activity against Pseudomonas aeruginosa ATCC 27853 assessed as effect on planktonic growth at 1.37 ug/ml after 20 hrs relative to control; type: functional
# Staphylococcus aureus [5] = assay: Antibacterial activity against Staphylococcus aureus ATCC 25923 assessed as effect on planktonic growth at 0.17 ug/ml after 20 hrs relative to control; type: functional
# Pseudomonas aeruginosa [6] = assay: Antibacterial activity against Pseudomonas aeruginosa ATCC 27853 assessed as effect on planktonic growth at 43.8 ug/ml after 20 hrs relative to control; type: functional
# Staphylococcus aureus [7] = assay: Antibacterial activity against Staphylococcus aureus ATCC 25923 assessed as effect on planktonic growth at 0.34 ug/ml after 20 hrs relative to control; type: functional
# [8] = test system: Staphylococcus epidermidis; assay: Antibacterial activity against Staphylococcus epidermidis ATCC 35547 assessed as effect on planktonic growth at 2.73 ug/ml after 20 hrs relative to control; type: functional
# [9] = test system: Staphylococcus epidermidis; assay: Antibacterial activity against Staphylococcus epidermidis ATCC 35547 assessed as effect on planktonic growth at 43.8 ug/ml after 20 hrs relative to control; type: functional
# Staphylococcus aureus [10] = assay: Antibacterial activity against Staphylococcus aureus ATCC 25923 assessed as effect on planktonic growth at 1.37 ug/ml after 20 hrs relative to control; type: functional
# Staphylococcus aureus [11] = assay: Antibacterial activity against Staphylococcus aureus ATCC 25923 assessed as effect on planktonic growth at 2.73 ug/ml after 20 hrs relative to control; type: functional
# Staphylococcus aureus [12] = assay: Antibacterial activity against Staphylococcus aureus ATCC 25923 assessed as effect on planktonic growth at 5.5 ug/ml after 20 hrs relative to control; type: functional
# Pseudomonas aeruginosa [13] = assay: Antibacterial activity against Pseudomonas aeruginosa ATCC 27853 assessed as effect on planktonic growth at 0.17 ug/ml after 20 hrs relative to control; type: functional
# [14] = test system: Staphylococcus epidermidis; assay: Antibacterial activity against Staphylococcus epidermidis ATCC 35547 assessed as effect on planktonic growth at 21.9 ug/ml after 20 hrs relative to control; type: functional
# Staphylococcus aureus [15] = assay: Antibacterial activity against Staphylococcus aureus ATCC 25923 assessed as effect on planktonic growth at 0.68 ug/ml after 20 hrs relative to control; type: functional
# [16] = test system: Staphylococcus epidermidis; assay: Antibacterial activity against Staphylococcus epidermidis ATCC 35547 assessed as effect on planktonic growth at 1.37 ug/ml after 20 hrs relative to control; type: functional
# Streptococcus mutans [17] = assay: Antibacterial activity against Streptococcus mutans ATCC 25175 assessed as effect on planktonic growth at 2.73 ug/ml after 20 hrs relative to control; type: functional
# Streptococcus mutans [18] = assay: Antibacterial activity against Streptococcus mutans ATCC 25175 assessed as effect on planktonic growth at 10.9 ug/ml after 20 hrs relative to control; type: functional
# [19] = test system: Staphylococcus epidermidis; assay: Antibacterial activity against Staphylococcus epidermidis ATCC 35547 assessed as effect on planktonic growth at 5.5 ug/ml after 20 hrs relative to control; type: functional
# Streptococcus mutans [20] = assay: Antibacterial activity against Streptococcus mutans ATCC 25175 assessed as effect on planktonic growth at 0.34 ug/ml after 20 hrs relative to control; type: functional
# Staphylococcus aureus [21] = assay: Antibacterial activity against Staphylococcus aureus ATCC 25923 assessed as effect on planktonic growth at 43.8 ug/ml after 20 hrs relative to control; type: functional
# Streptococcus mutans [22] = assay: Antibacterial activity against Streptococcus mutans ATCC 25175 assessed as effect on planktonic growth at 0.17 ug/ml after 20 hrs relative to control; type: functional
# Pseudomonas aeruginosa [23] = assay: Antibacterial activity against Pseudomonas aeruginosa ATCC 27853 assessed as effect on planktonic growth at 2.73 ug/ml after 20 hrs relative to control; type: functional
# [24] = test system: Staphylococcus epidermidis; assay: Antibacterial activity against Staphylococcus epidermidis ATCC 35547 assessed as effect on planktonic growth at 0.34 ug/ml after 20 hrs relative to control; type: functional
# Streptococcus mutans [25] = assay: Antibacterial activity against Streptococcus mutans ATCC 25175 assessed as effect on planktonic growth at 87.5 ug/ml after 20 hrs relative to control; type: functional
# [26] = test system: Staphylococcus epidermidis; assay: Antibacterial activity against Staphylococcus epidermidis ATCC 35547 assessed as inhibition of biofilm formation after 20 hrs by crystal-violet staining method; type: functional, organism-based; details: for IC50: ATCC 35547, 20 h
# Staphylococcus aureus [27] = assay: Antibacterial activity against Staphylococcus aureus ATCC 25923 assessed as effect on planktonic growth at 21.9 ug/ml after 20 hrs relative to control; type: functional
# Pseudomonas aeruginosa [28] = assay: Antibacterial activity against Pseudomonas aeruginosa ATCC 27853 assessed as effect on planktonic growth at 0.34 ug/ml after 20 hrs relative to control; type: functional
# Pseudomonas aeruginosa [29] = assay: Antibacterial activity against Pseudomonas aeruginosa ATCC 27853 assessed as effect on planktonic growth at 0.68 ug/ml after 20 hrs relative to control; type: functional
# Streptococcus mutans [30] = assay: Antibacterial activity against Streptococcus mutans ATCC 25175 assessed as effect on planktonic growth at 0.68 ug/ml after 20 hrs relative to control; type: functional
# Pseudomonas aeruginosa [31] = assay: Antibacterial activity against Pseudomonas aeruginosa ATCC 27853 assessed as effect on planktonic growth at 5.5 ug/ml after 20 hrs relative to control; type: functional
# Pseudomonas aeruginosa [32] = assay: Antibacterial activity against Pseudomonas aeruginosa ATCC 27853 assessed as effect on planktonic growth at 21.9 ug/ml after 20 hrs relative to control; type: functional
# [33] = test system: Staphylococcus epidermidis; assay: Antibacterial activity against Staphylococcus epidermidis ATCC 35547 assessed as effect on planktonic growth at 87.5 ug/ml after 20 hrs relative to control; type: functional
# [34] = test system: Staphylococcus epidermidis; assay: Antibacterial activity against Staphylococcus epidermidis ATCC 35547 assessed as effect on planktonic growth at 10.9 ug/ml after 20 hrs relative to control; type: functional
# Streptococcus mutans [35] = assay: Antibacterial activity against Streptococcus mutans ATCC 25175 assessed as effect on planktonic growth at 43.8 ug/ml after 20 hrs relative to control; type: functional
# Pseudomonas aeruginosa [36] = assay: Antibacterial activity against Pseudomonas aeruginosa ATCC 27853 assessed as effect on planktonic growth at 10.9 ug/ml after 20 hrs relative to control; type: functional
# Staphylococcus aureus [37] = assay: Antibacterial activity against Staphylococcus aureus ATCC 25923 assessed as effect on planktonic growth at 10.9 ug/ml after 20 hrs relative to control; type: functional
# [38] = test system: Staphylococcus epidermidis; assay: Antibacterial activity against Staphylococcus epidermidis ATCC 35547 assessed as effect on planktonic growth at 0.68 ug/ml after 20 hrs relative to control; type: functional
# Streptococcus mutans [39] = assay: Antibacterial activity against Streptococcus mutans ATCC 25175 assessed as effect on planktonic growth at 1.37 ug/ml after 20 hrs relative to control; type: functional
# Staphylococcus aureus [40] = assay: Antibacterial activity against Staphylococcus aureus ATCC 25923 assessed as effect on planktonic growth at 87.5 ug/ml after 20 hrs relative to control; type: functional
# Streptococcus mutans [41] = assay: Antibacterial activity against Streptococcus mutans ATCC 25175 assessed as effect on planktonic growth at 21.9 ug/ml after 20 hrs relative to control; type: functional
# [42] = test system: Staphylococcus epidermidis; assay: Antibacterial activity against Staphylococcus epidermidis ATCC 35547 assessed as effect on planktonic growth at 0.17 ug/ml after 20 hrs relative to control; type: functional
smiles,measurement,setting,value
COc1ccc(C)cc1C1=C(Br)C(=O)N(CC(C)C)C1(O)Cc1cccc(Cl)c1 (configuration not stated),inhibition,Pseudomonas aeruginosa [1],Dose-dependent effect
same,Activity,Pseudomonas aeruginosa [2],-11.6%
same,Activity,Streptococcus mutans [3],-11%
same,Activity,Pseudomonas aeruginosa [4],-3.4%
same,Activity,Staphylococcus aureus [5],6.7%
same,Activity,Pseudomonas aeruginosa [6],-10.6%
same,Activity,Staphylococcus aureus [7],11.4%
same,Activity,[8],1.9%
same,Activity,[9],-28.5%
same,Activity,Staphylococcus aureus [10],9.7%
same,Activity,Staphylococcus aureus [11],12.8%
same,Activity,Staphylococcus aureus [12],5.4%
same,Activity,Pseudomonas aeruginosa [13],-1.6%
same,Activity,[14],-7.3%
same,Activity,Staphylococcus aureus [15],10.8%
same,Activity,[16],0.9%
same,Activity,Streptococcus mutans [17],-2.9%
same,Activity,Streptococcus mutans [18],-7.6%
same,Activity,[19],12%
same,Activity,Streptococcus mutans [20],2.4%
same,Activity,Staphylococcus aureus [21],-5%
same,Activity,Streptococcus mutans [22],3%
same,Activity,Pseudomonas aeruginosa [23],-7%
same,Activity,[24],2.4%
same,Activity,Streptococcus mutans [25],-31.2%
same,inhibition,[26],Dose-dependent effect
same,IC50,[26],> 87.5 µg/mL
same,Activity,Staphylococcus aureus [27],3.4%
same,Activity,Pseudomonas aeruginosa [28],-1.3%
same,Activity,Pseudomonas aeruginosa [29],-2.6%
same,Activity,Streptococcus mutans [30],1.1%
same,Activity,Pseudomonas aeruginosa [31],-8.6%
same,Activity,Pseudomonas aeruginosa [32],-7.9%
same,Activity,[33],-7.8%
same,Activity,[34],-17.2%
same,Activity,Streptococcus mutans [35],-21%
same,Activity,Pseudomonas aeruginosa [36],-9.6%
same,Activity,Staphylococcus aureus [37],4.3%
same,Activity,[38],1.2%
same,Activity,Streptococcus mutans [39],-4.8%
same,Activity,Staphylococcus aureus [40],-12.1%
same,Activity,Streptococcus mutans [41],-12.5%
same,Activity,[42],3.5%
COc1ccc(Cl)cc1C1=C(Br)C(=O)N(CC(C)C)/C1=C\c1ccccc1Br,inhibition,Pseudomonas aeruginosa [1],Dose-dependent effect
same,IC50,"Pseudomonas aeruginosa [1]; ATCC 27853, 20 h",0.7 µg/mL
same,Activity,Pseudomonas aeruginosa [2],10%
same,Activity,Streptococcus mutans [3],-1.6%
same,Activity,Pseudomonas aeruginosa [4],0.4%
same,Activity,Staphylococcus aureus [5],11.2%
same,Activity,Pseudomonas aeruginosa [6],-6.6%
same,Activity,Staphylococcus aureus [7],17.2%
same,Activity,[8],-6%
same,Activity,[9],13.5%
same,Activity,Staphylococcus aureus [10],12.4%
same,Activity,Staphylococcus aureus [11],2.7%
same,Activity,Staphylococcus aureus [12],2.5%
same,Activity,Pseudomonas aeruginosa [13],-2.5%
same,Activity,[14],2.1%
same,Activity,Staphylococcus aureus [15],12.2%
same,Activity,[16],-3.8%
same,Activity,Streptococcus mutans [17],9.6%
same,Activity,Streptococcus mutans [18],-3.3%
same,Activity,[19],-5.7%
same,Activity,Streptococcus mutans [20],10.4%
same,Activity,Staphylococcus aureus [21],23.6%
same,Activity,Streptococcus mutans [22],12.4%
same,Activity,Pseudomonas aeruginosa [23],-3.1%
same,Activity,[24],-0.2%
same,Activity,Streptococcus mutans [25],23.4%
same,inhibition,[26],Dose-dependent effect
same,IC50,[26],> 87.5 µg/mL
same,Activity,Staphylococcus aureus [27],7.5%
same,Activity,Pseudomonas aeruginosa [28],-4%
same,Activity,Pseudomonas aeruginosa [29],-0.1%
same,Activity,Streptococcus mutans [30],11%
same,Activity,Pseudomonas aeruginosa [31],-5.5%
same,Activity,Pseudomonas aeruginosa [32],-9.6%
same,Activity,[33],6.9%
same,Activity,[34],-3.2%
same,Activity,Streptococcus mutans [35],7.4%
same,Activity,Pseudomonas aeruginosa [36],-11.5%
same,Activity,Staphylococcus aureus [37],-1.2%
same,Activity,[38],-5.2%
same,Activity,Streptococcus mutans [39],8.5%
same,Activity,Staphylococcus aureus [40],48%
same,Activity,Streptococcus mutans [41],10.4%
same,Activity,[42],-2.5%
